Results reported in patent publication US10588316B2 (priority 2015, dated 2020).
“And” between values parts separate entries of the source, which are not always exact repeats. Equal entries are not always repeated. Where two headings read alike, the source gives them in different places.

Tests used:
Fusarium graminearum = assay: microbe, parasite or virus in culture; assay type: cell-based; settings: for Average Fungal Colony Diameter F.g: sensitive strains
Fusarium asiaticum = assay: microbe, parasite or virus in culture; assay type: cell-based
[1] = tested on: Fusarium graminearum and Fusarium asiaticum; assay: organism not typed; assay type: cell-based; settings: read-out: inhibitory effect on the growth of the two types of Fusaria
[2] = tested on: carbendazim-resistant Fusarium asiaticum; assay: microbe, parasite or virus in culture; assay type: cell-based; settings: for inhibition at 1 µg/mL / inhibition at 10 µg/mL / inhibition at 100 µg/mL / inhibition at 1000 µg/mL / inhibition at 10000 µg/mL: Fusarium asiaticum, read-out: DON Biosynthesis Inhibition Rate
Tri5 gene = assay type: cell-based, Fusarium asiaticum
powdery mildew fungus = tested on: powdery mildew fungus; parameters: species or system wheat; settings: in vivo
leaf rust fungus = tested on: leaf rust fungus; parameters: species or system wheat; settings: in vivo
rust [3] = tested on: rust; parameters: species or system barley; settings: in vivo
leaf blight [4] = tested on: leaf blight; parameters: species or system wheat; settings: in vivo
powdery mildew [5] = assay type: in vivo, wheat; settings: in vivo
rust [6] = tested on: rust; parameters: species or system wheat; settings: in vivo
wheat scab [7] = assay type: in vivo
wheat scab [8] = assay type: in vivo; remark: listed apart in the source
powdery mildew [9] = assay type: in vivo, wheat; settings: in vivo; remark: listed apart in the source
rust [10] = assay type: in vivo, wheat; settings: in vivo
[11] = assay type: in vivo, wheat; settings: in vivo
wheat scab [12] = assay type: in vivo; remark: listed apart in the source
leaf blight [13] = assay type: in vivo, wheat; settings: in vivo
rust [14] = assay type: in vivo, wheat; settings: in vivo; remark: listed apart in the source
[15] = assay type: in vivo, wheat; settings: in vivo; remark: listed apart in the source
wheat scab [16] = assay type: in vivo; settings: Preparation 100 g/mu; Jinggangmycin 20, Tebuconazole 0 g ai. agent/mu
leaf blight [17] = assay type: in vivo, wheat; settings: in vivo; remark: listed apart in the source
powdery mildew [18] = assay type: in vivo, wheat; settings: in vivo; remark: listed apart in the source
rust [19] = assay type: in vivo, wheat; settings: in vivo; remark: listed apart in the source
wheat scab [20] = assay type: in vivo; settings: Preparation 100 (mL/mu); Jinggangmycin 20, Tebuconazole 0 g ai. agent/mu
leaf blight [21] = assay type: in vivo, wheat; settings: in vivo; remark: listed apart in the source
powdery mildew [22] = assay type: in vivo, wheat; settings: in vivo; remark: listed apart in the source
rust [23] = assay type: in vivo, wheat; settings: in vivo; remark: listed apart in the source
wheat scab [24] = assay type: in vivo; remark: listed apart in the source
powdery mildew [25] = assay type: in vivo, wheat; settings: in vivo; remark: listed apart in the source

OCC1=CC(N[C@H]2C[C@H](CO)[C@@H](OC3O[C@H](CO)[C@@H](O)[C@H](O)[C@H]3O)C(O)[C@H]2O)[C@H](O)[C@@H](O)C1O (stereo partly shown) [Jinggangmycin, jinggangmycin A]
inhibition at 50 µg/mL (Fusarium graminearum; Fusarium graminearum, read-out: Growth Inhibition Rate F.g): 6.6%
Average Fungal Colony Diameter F.g (Fusarium graminearum; Jinggangmycin A 0.1 μg/mL): 76.3 mm
Average Fungal Colony Diameter F.g (Fusarium graminearum; Jinggangmycin A 1.0 μg/mL): 76.2 mm
Average Fungal Colony Diameter F.g (Fusarium graminearum; Jinggangmycin A 10.0 μg/mL): 75.4 mm
Average Fungal Colony Diameter F.g (Fusarium graminearum; Jinggangmycin A 50.0 μg/mL): 70.3 mm
Average Fungal Colony Diameter F.a (Fusarium asiaticum): 76.3 mm and 75.6 mm and 69.4 mm
inhibition at 50 µg/mL (Fusarium asiaticum; Fusarium asiaticum, read-out: Growth Inhibition Rate F.a): 7.8%
inhibition at 50 µg/mL [1]: 6.5 to 7.8%
inhibition at 1 µg/mL ([2]; 168 h): 28.6%
inhibition at 10 µg/mL ([2]; 168 h): 35.5%
inhibition at 100 µg/mL ([2]; 168 h): 45.2%
inhibition at 1000 µg/mL ([2]; 168 h): 65.5%
inhibition at 10000 µg/mL ([2]; 168 h): 75.9%
inhibition at 1 µg/mL ([2]; 336 h): 1.7%
inhibition at 10 µg/mL ([2]; 336 h): 7.87%
inhibition at 100 µg/mL ([2]; 336 h): 29.9%
inhibition at 1000 µg/mL ([2]; 336 h): 57%
inhibition at 10000 µg/mL ([2]; 336 h): 75.4%
Toxin Production Capability of Hyphae ([2]; Jinggangmycin 1 μg/ml, 7 days of culture): 62.82 μgDON/g by dry weight of hyphae
Toxin Production Capability of Hyphae ([2]; Jinggangmycin 1 μg/ml, 14 days of culture): 51.43 μgDON/g by dry weight of hyphae
Toxin Production Capability of Hyphae ([2]; Jinggangmycin 10 μg/ml, 7 days of culture): 56.76 μgDON/g by dry weight of hyphae
Toxin Production Capability of Hyphae ([2]; Jinggangmycin 10 μg/ml, 14 days of culture): 48.20 μgDON/g by dry weight of hyphae
Toxin Production Capability of Hyphae ([2]; Jinggangmycin 100 μg/ml, 7 days of culture): 48.23 μgDON/g by dry weight of hyphae
Toxin Production Capability of Hyphae ([2]; Jinggangmycin 100 μg/ml, 14 days of culture): 36.68 μgDON/g by dry weight of hyphae
Toxin Production Capability of Hyphae ([2]; Jinggangmycin 1000 μg/ml, 7 days of culture): 30.35 μgDON/g by dry weight of hyphae
Toxin Production Capability of Hyphae ([2]; Jinggangmycin 1000 μg/ml, 14 days of culture): 22.52 μgDON/g by dry weight of hyphae
Toxin Production Capability of Hyphae ([2]; Jinggangmycin 10000 μg/ml, 7 days of culture): 21.23 μgDON/g by dry weight of hyphae
Toxin Production Capability of Hyphae ([2]; Jinggangmycin 10000 μg/ml, 14 days of culture): 12.85 μgDON/g by dry weight of hyphae
Rate of Inhibition on Relative Expression Level of Tri5 Gene (Tri5 gene): 59% and 66% and 84% and 87% and 90%
Incidence Prevention Effect % Powdery Mildew (powdery mildew fungus): 0% and 6.5%
Incidence Prevention Effect % Rust (leaf rust fungus): 0% and 4.5%
Disease Index Prevention Effect % Rust (rust [3]): 0%
Disease Index Prevention Effect % Leaf Blight (leaf blight [4]): 8.5% and 7.9% and 0%
Disease Index Prevention Effect % Powdery Mildew (powdery mildew [5]): 7.3% and 4.4% and 4.5% and 0%
Disease Index Prevention Effect % Rust (rust [6]): 5.1% and 3.6% and 0%
Disease Index Prevention Effect % Head Blight (wheat scab [7]; Jinggangmycin 0.5 g ai. agent/mu): 0.0%
Disease Index Prevention Effect % Head Blight (wheat scab [7]; Jinggangmycin 1.0 g ai. agent/mu): 0.0%
Disease Index Prevention Effect % Head Blight (wheat scab [7]; Jinggangmycin 1.3 g ai. agent/mu): 0.0%
Disease Index Prevention Effect % Head Blight (wheat scab [7]; Jinggangmycin 2.5 g ai. agent/mu): 0.0%
Disease Index Prevention Effect % Head Blight (wheat scab [7]; Jinggangmycin 5.0 g ai. agent/mu): 0.0%
Disease Index Prevention Effect % Head Blight (wheat scab [7]; Jinggangmycin 8.0 g ai. agent/mu): 17.9%
Disease Index Prevention Effect % Head Blight (wheat scab [7]; Jinggangmycin 14.0 g ai. agent/mu): 23.7%
Disease Index Prevention Effect % Head Blight (wheat scab [7]; Jinggangmycin 16.0 g ai. agent/mu): 27.8%
Disease Index Prevention Effect % Head Blight (wheat scab [7]; Jinggangmycin 28.0 g ai. agent/mu): 29.6%
Disease Index Prevention Effect % Head Blight (wheat scab [8]; Jinggangmycin 6 g ai. agent/mu): 0%
Disease Index Prevention Effect % Head Blight (wheat scab [8]; Jinggangmycin 9 g ai. agent/mu): 17.6%
Disease Index Prevention Effect % Head Blight (wheat scab [8]; Jinggangmycin 15 g ai. agent/mu): 28.3%
Disease Index Prevention Effect % Head Blight (wheat scab [8]; Jinggangmycin 21 g ai. agent/mu): 35.4%
Disease Index Prevention Effect % Powdery Mildew (powdery mildew [9]): 8.5% and 0%
Disease Index Prevention Effect % Rust (rust [10]): 8.9% and 0%
Thousand Kernel Weight [11]: 38.5 g and 40.1 g and 37.8 g and 41.5 g
Disease Index Prevention Effect % Head Blight (wheat scab [12]; Preparation 15 g/mu, Jinggangmycin 3 g ai. agent/mu): 0%
Disease Index Prevention Effect % Head Blight (wheat scab [12]; Preparation 37.5 g/mu, Jinggangmycin 7.5 g ai. agent/mu): 24.2%
Disease Index Prevention Effect % Head Blight (wheat scab [12]; Preparation 50 g/mu, Jinggangmycin 10 g ai. agent/mu): 32.4%
Disease Index Prevention Effect % Leaf Blight (leaf blight [13]): 8.6% and 8.8% and 5.8%
Disease Index Prevention Effect % Rust (rust [14]): 6.8% and 6.5% and 0%
Thousand Kernel Weight [15]: 37.5 g and 38.6 g and 37.6 g
Disease Index Prevention Effect % Head Blight (wheat scab [16]): 40.2%
Disease Index Prevention Effect % Leaf Blight (leaf blight [17]): 7.8%
Disease Index Prevention Effect % Powdery Mildew (powdery mildew [18]): 10.6%
Disease Index Prevention Effect % Rust (rust [19]): 6.5%
Disease Index Prevention Effect % Head Blight (wheat scab [20]): 34.2%
Disease Index Prevention Effect % Leaf Blight (leaf blight [21]): 7.8%
Disease Index Prevention Effect % Powdery Mildew (powdery mildew [22]): 10.6%
Disease Index Prevention Effect % Rust (rust [23]): 6.5%
Disease Index Prevention Effect % Head Blight (wheat scab [24]; Preparation 30 g/mu, Jinggangmycin 6 g ai. agent/mu): 7.4%
Disease Index Prevention Effect % Head Blight (wheat scab [24]; Preparation 45 g/mu, Jinggangmycin 9 g ai. agent/mu): 9.4%
Disease Index Prevention Effect % Head Blight (wheat scab [24]; Preparation 60 g/mu, Jinggangmycin 12 g ai. agent/mu): 10.2%
Disease Index Prevention Effect % Head Blight (wheat scab [24]; Preparation 75 g/mu, Jinggangmycin 15 g ai. agent/mu): 34.2%
Disease Index Prevention Effect % Powdery Mildew (powdery mildew [25]): 8.6% and 6.6% and 3% and 1.8%
